Results from patent US20090047243A1, “COMBINATIONS FOR THE TREATMENT OF B-CELL PROLIFERATIVE DISORDERS” (priority 2007, published 2009).

Assays:
[1] = test system: RPMI-8226 multiple myeloma cell line; experiment: Anti-proliferation assay (ATPLite, 72 h); format: cell-based, human; design: key: S = lnfX·lnfY·ΣIdata(Idata−ILoewe), volume over Loewe additivity
Procedure, shortened: (§1)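 ATPLite luminescence readout; ANBL6 medium + 10 ng/ml IL-6. Single agents tested at 12 concentrations, 2- or 3-fold serial dilutions. % inhibition vs untreated-well mean.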

[2] = test system: H929 multiple myeloma cell line; experiment: Anti-proliferation assay (ATPLite, 72 h); format: cell-based, human; design: key: S = lnfX·lnfY·ΣIdata(Idata−ILoewe), volume over Loewe additivity
Procedure, shortened: as §1

[3] = test system: human multiple myeloma cells (MM.1S); experiment: Anti-proliferation assay (ATPLite, 72 h); format: cell-based; design: key to synergy score / synergy (score), PDEi × HE-NECA: S = lnfX·lnfY·ΣIdata(Idata−ILoewe), volume over Loewe additivity
Procedure, shortened: as §1

[4] = test system: patient CLL cells; experiment: Apoptosis assay (Hoechst 33342, flow cytometry, 48 h); format: cell-based, human; design: unit not given here; settings: CGS-21680 0 μM
Description: Blood samples were obtained in heparinized tubes with IRB-approved consent from flow cytometry-confirmed B-CLL patients that were either untreated or for whom at least 1 month had elapsed since chemotherapy. Patients with active infections or other serious medical conditions were not included in this study. Patients with white blood cell counts of less than 15,000/μl by automated analysis were excluded from this study. Whole blood was layered on Ficoll-Hystopaque (Sigma), and peripheral blood mononuclear cells (PBMC) isolated after centrification. […] One million cells were stained with anti-CD5-PE and anti-CD19-PE-Cy5 (Becton Dickenson, Franklin Lakes N.J.). The percentage of B-CLL cells was defined as the percentage of cells doubly expressing CD5 and CDl9, as determined by flow cytometry. […] Compound master plates were diluted 1:50 into complete media to create working compound dilutions. Compound crosses were then created by diluting two working dilution plates 1:10 into each plate of cells. […] Hoechst 33342 (Molecular Probes, Eugene Oreg.) at a final concentration of 0.25 μg/1 mL was added to each well, and the cells incubated at 37° C. for an additional ten minutes before being placed on ice until analysis. Plates were then analyzed on a LSR-II flow cytometer (Becton Dickenson, Franklin Lakes, N.J.) equipped with the High Throughput Sampling (HTS) option in high throughput mode. […] The apoptotic fraction was calculated using FlowJo software (Tree Star Inc., Ashland, Oreg.) after excluding debris by a FSC/SSC gate and subsequently gating for cells that accumulate the Hoechst dye.

[5] = test system: MOLP-8 MM cell line; experiment: Anti-proliferation assay (ATPLite, 72 h); format: cell-based, human; settings: CGS-21680 × PDE inhibitor
Protocol: (§2) ANBL6 and INA-6 culture media was also supplemented with 10 ng/ml IL-6. […] MM.1S, MM.1R, OCI-ly10, Karpas 422, and SU-DHL6 cells were provided by the Dana Farber Cancer Institute. H929, RPMI-8226, GA-10, and Farage cells were from ATCC (Cat #'s CCL-155, CRL-9068, CRL-2392 and CRL-2630 respectively). MOLP-8, EJM, KSM-12-PE, and OPM2 were from DSMZ. The ANBL6 and INA-6 cell lines were provided by the M. D. Anderson Cancer Research Center. Compounds were prepared in DMSO at 1000× the highest desired concentration. Master plates were generated consisting of serially diluted compounds in 2- or 3-fold dilutions in 384-well format. For single agent dose response curves, the master plates consisted of 9 individual compounds at 12 concentrations in 2- or 3-fold dilutions. For combination matrices, master plates consisted of individual compounds at 6 or 9 concentrations at 2- or 3-fold dilutions. […] To obtain combination data, two master plates were diluted into the assay plates. […] Thirty microliters of ATPLite (Perkin Elmer) at room temperature was then added to each well. […] Measurements were taken at the top of the well using a luminescence aperture and a read time of 0.1 seconds per well. The percent inhibition (% I) for each well was calculated using the following formula: % I=[(avg. untreated wells-treated well)/(avg. untreated wells)]×100. […] Negative inhibition values result from local variations in treated wells as compared to untreated wells. […] The uncertainty of each fitted parameter was estimated from the range over which the change in reduced chi-squared was less than one, or less than minimum reduced chi-squared if that minimum exceeded one, to allow for underestimated σI errors. Single agent curve data were used to define a dilution series for each compound to be used for combination screening in a 6×6 matrix format. […] The Loewe additivity model was used to quantify combination effects. […] A “Synergy Score” was also used, where the Synergy Score S=log fX log fY ΣIdata(Idata-ILoewe), summed over all non-single-agent concentration pairs, and where log fX,Y is the natural logarithm of the dilution factors used for each single agent. This effectively calculates a volume between the measured and Loewe additive response surfaces, weighted towards high inhibition and corrected for varying dilution factors. An uncertainty σS was calculated for each synergy score, based on the measured errors for the Idata values and standard error propagation.

[6] = test system: OPM2 MM cell line; experiment: Anti-proliferation assay (ATPLite, 72 h); format: cell-based, human; settings: CGS-21680 × PDE inhibitor
Protocol: as §2

[7] = test system: KSM-12-PE MM cell line; experiment: Anti-proliferation assay (ATPLite, 72 h); format: cell-based, human; settings: CGS-21680 × PDE inhibitor
Protocol: as §2

[8] = test system: EJM MM cell line; experiment: Anti-proliferation assay (ATPLite, 72 h); format: cell-based, human; settings: CGS-21680 × PDE inhibitor
Protocol: as §2

[9] = test system: ANBL6 MM cell line; experiment: Anti-proliferation assay (ATPLite, 72 h); format: cell-based, human; settings: CGS-21680 × PDE inhibitor
Protocol: as §2

[10] = test system: INA-6 MM cell line; experiment: Anti-proliferation assay (ATPLite, 72 h); format: cell-based, human; settings: CGS-21680 × PDE inhibitor
Protocol: as §2

[11] = test system: human multiple myeloma cells (MM.1R); experiment: Anti-proliferation assay (ATPLite, 72 h); format: cell-based; design: key: S = lnfX·lnfY·ΣIdata(Idata−ILoewe), volume over Loewe additivity
Procedure, shortened: as §1

[12] = test system: phosphodiesterase (PDE) types; settings: PDE type(s) in brackets after the name; cited from earlier work

O=C(Nc1c(Cl)cncc1Cl)c1ccc(OC(F)F)c(OCC2CC2)c1 [Roflumilast, 3-(cyclopropylmethoxy)-N-(3,5-dichloro-4-pyridinyl)-4-(difluoromethoxy)-benzamide] showed a synergy score ([1]; in combination with adenosine receptor agonist CGS-21680, RPMI 8226) of 0.69, a synergy score ([1]; in combination with adenosine receptor agonist HE-NECA, RPMI-8226) of 0.466 and a synergy score ([1]; in combination with adenosine receptor agonist regadenoson, RPMI 8226) of 1.12. The synergy score ([2]; PDE inhibitor crossed with (S) ENBA, H929) was 1.77, the synergy score ([2]; PDE inhibitor crossed with Chloro-IB-MECA, H929) was 1.16 and the synergy score ([2]; PDE inhibitor crossed with HE-NECA, H929) was 0.98. For the same molecule, the synergy score ([2]; in combination with adenosine receptor agonist CGS-21680, H929) was 3.71, the synergy score ([2]; in combination with adenosine receptor agonist HE-NECA, H929) was 0.98 and the synergy score ([2]; in combination with adenosine receptor agonist regadenoson, H929) was 2.7. The inhibition at 0.0631 µM ([3]; Homo sapiens, MM1.S, Roflumilast 0.0631 μM, Cl-IB-MECA conc. (μM), read-out: Percent inhibition of ATP in MM.1S cells) was -7.1%, the inhibition at 0.126 µM ([3]; Homo sapiens, MM1.S, Roflumilast 0.126 μM, Cl-IB-MECA conc. (μM), read-out: Percent inhibition of ATP in MM.1S cells) was 1.5% and the inhibition at 0.252 µM ([3]; Homo sapiens, MM1.S, Roflumilast 0.252 μM, Cl-IB-MECA conc. (μM), read-out: Percent inhibition of ATP in MM.1S cells) was -3.5%. For the same molecule, the inhibition at 0.505 µM ([3]; Homo sapiens, MM1.S, Roflumilast 0.505 μM, Cl-IB-MECA conc. (μM), read-out: Percent inhibition of ATP in MM.1S cells) was 11%, the inhibition at 1.01 µM ([3]; Homo sapiens, MM1.S, Roflumilast 1.01 μM, Cl-IB-MECA conc. (μM), read-out: Percent inhibition of ATP in MM.1S cells) was 7.5% and the synergy score ([3]; PDE inhibitor crossed with (S) ENBA, MM.1S) was 2.19. For the same molecule, the synergy score ([3]; PDE inhibitor crossed with Chloro-IB-MECA, MM.1S) was 2.12, the synergy score ([3]; PDE inhibitor crossed with HE-NECA, MM.1S) was 2 and the synergy score ([3]; in combination with adenosine receptor agonist CGS-21680, MM.1S) was 3.82. The synergy score ([3]; in combination with adenosine receptor agonist HE-NECA, MM.1S) was 2, the synergy score ([3]; in combination with adenosine receptor agonist regadenoson, MM.1S) was 3.56 and the Induction of apoptosis ([4]; Roflumilast 0.03 μM) was 17. The Induction of apoptosis ([4]; Roflumilast 0.09 μM) was 26, the Induction of apoptosis ([4]; Roflumilast 0.27 μM) was 32 and the synergy score [5] was 3.44. It also gave a synergy score [6] of 0.29, a synergy score [7] of 0.27 and a synergy score [8] of 1.06. The synergy score [9] was 3.73, the synergy score [10] was 2.62 and the synergy score ([11]; in combination with adenosine receptor agonist CGS-21680, MM.1R) was 3.61. For the same molecule, the synergy score ([11]; in combination with adenosine receptor agonist regadenoson, MM.1R) was 5.83 and the “PDE inhibitors (specificity)” value [12] was “Roflumilast (4)”.
